PubChem BioAssay AID624491 (Broad Institute, 2012)

What follows are compounds tested on D54 ERlucT glycosylation luciferase reporter, luminescence, 24 h (assay: N-linked glycosylation inhibitors, luciferase reporter, dose response, D54 ERlucT cells, luminescence, cherry-picks (AID 624491);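 note: signal gain reflects blocked N-linked glycosylation of a luciferase reporter; actives raise luciferase signal so AC26 marks activators of the reporter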).

Point of comparison: `COc1ccc(C(=O)c2cc([N+](=O)[O-])ccc2N2CCN(C)CC2)cc1`, AC26 2330 nM. Against it:
- CCOc1cc(C(=O)Nc2ccc(N3CCOCC3)cc2)cc(Br)c1OC — within 1.5-fold, 2770 nM
- COCCCNC(=O)c1sc2ncn(CC(=O)Nc3ccc(C)c(Cl)c3)c(=O)c2c1C — 1.7-fold lower, 1380 nM
- O=C(N/N=C/C(Br)=C/c1ccccc1)c1cc(-c2ccco2)[nH]n1 — 2.3-fold higher, 5350 nM
- CC(=O)Nc1cccc(-c2ccnc3c2CC(C)(C(=O)Nc2cccc(C(C)=O)c2)O3)c1 (centres undefined) — 4.1-fold higher, 9480 nM
- O=C(CNC(=O)c1ccco1)N=Nc1c(O)n(CCc2ccccc2)c2ccccc12 — 1.6-fold lower, 1430 nM
- Cc1cccc(NC(=O)Nc2cccc(C#N)c2)n1 — 1.7-fold higher, 4060 nM
- CCOc1ccccc1N1CCN(C(=O)c2cc3ccccc3cc2OC)CC1 — within 1.5-fold, 3440 nM
- COc1c(Br)cc(Br)cc1/C=N/NC(=O)c1cccnc1 — 4.4-fold higher, 10200 nM
- NC(=O)/C=C/C(=O)Nc1ccc(Cl)cc1 — 6.5-fold higher, 15100 nM
- COc1ccc(OC)c(S(=O)(=O)Nc2ccc(-c3ccc4nnc(C)n4n3)cc2)c1 — within 1.5-fold, 3190 nM
- O=C(NCC1CCCO1)c1cc(-c2ccc(F)cc2)no1 (centres undefined) — 2.5-fold higher, 5760 nM
- COC1C(O)C(C)OC(OC2C(Oc3cccc4c(O)c5c(=O)oc6ccc(C)c7c(=O)oc(c34)c5c67)OC(C)C(O)C2O)C1O (centres undefined) — 2.3-fold lower, 1000 nM
- COc1ccc2c(c1)C(=O)N1[C@H]3c4cc(Br)ccc4OC[C@@H]3[C@H](c3ccccc3)[C@]1(C)C(=O)N2 — 2.7-fold lower, 851 nM
- O=C(/C=C/Sc1ccc(C(F)(F)F)cn1)c1ccccc1 — 1.7-fold higher, 3910 nM
- COc1nc(=O)n(C2C=CC(=O)O2)cc1F (centres undefined) — within 1.5-fold, 3200 nM
- COc1cc(OC)cc(C(=O)N/N=C/c2ccc(OC)c(COc3ccc(F)cc3)c2)c1 — within 1.5-fold, 2250 nM
- Brc1ccc(C2=Nn3c(nnc3-c3n[nH]c4c3CCC4)SC2)cc1 — 5.7-fold lower, 407 nM
- CCOC(=O)c1[nH]c(C)c(C(=O)Nc2cc(OC)ccc2OC)c1C — 7.2-fold lower, 322 nM
- Cc1ccnc2nc(C(=O)Nc3cc(Cl)ccc3N3CCOCC3)nn12 — 3.5-fold lower, 659 nM
- CNc1ccc(Br)cc(C(=O)/C=C/c2cccc(OC)c2OC)c1=O — within 1.5-fold, 2220 nM
- COc1ccc2oc(-c3ccccc3[N+](=O)[O-])cc(=O)c2c1 — 4.1-fold lower, 568 nM
- CCn1c2ccccc2c2cc(NC(=O)c3cc(OC)c(OC)c(OC)c3)ccc21 — 3.9-fold lower, 605 nM
- COc1ccc(-c2cc(C)no2)cc1S(=O)(=O)Nc1ccccc1 — 1.6-fold higher, 3740 nM
- COCCNC(=O)c1cc(-c2cccs2)on1 — 2-fold higher, 4600 nM
- Cc1cc2nnc(SCC(=O)NCc3cccs3)n2c2ccccc12 — within 1.5-fold, 1660 nM
- CCOC(=O)c1[nH]c(C)c(C(=O)Nc2ccc(C)c(F)c2)c1C — 2.3-fold higher, 5420 nM
- COc1cc2cnc(-c3ccccc3)cc2cc1OC — within 1.5-fold, 2360 nM
- Cc1ccc2nc(-c3ccccc3)cc(C(=O)N3CC(C)OC(C)C3)c2c1 (centres undefined) — within 1.5-fold, 2450 nM
- COc1ccc(Cl)cc1NC(=O)CN(C)CC(=O)Nc1cc(OC)c(OC)c(OC)c1 — 4.4-fold higher, 10200 nM
- Cc1cc(C(=O)N/N=C/c2c3ccccc3cc3ccccc23)n[nH]1 — 2.9-fold higher, 6680 nM
- COc1ccc(S(=O)(=O)Nc2ccc3c(c2)n(C)c(=O)n3C)cc1C — 4.3-fold higher, 9910 nM
- COC(=O)c1cn(C(=O)c2cccc3ccccc23)c2ccccc12 — 2.5-fold lower, 928 nM
- Cc1cc(C)cc(N2C(=O)NC(=O)/C(=C\C=C\c3ccco3)C2=O)c1 — 2.1-fold lower, 1130 nM
- COc1cccc(NC(=O)CCCOc2cc(=O)n(C)c3ccccc23)c1 — 1.8-fold higher, 4130 nM
- Cc1cc(Nc2cc(Cl)cc(Cl)c2)nc(N)n1 — 1.8-fold lower, 1280 nM
- O=C(CSc1nnc(-c2cc3ccccc3cc2O)n1Cc1ccco1)N1CCc2ccccc2C1 — 3.3-fold lower, 702 nM
- CCN1C(=O)c2cccc3c(S(=O)(=O)Nc4ccccc4OC)ccc1c23 — 1.8-fold higher, 4240 nM
- CCN(CC)S(=O)(=O)c1cc(NC(=O)Cn2ncc(Cl)c(Cl)c2=O)ccc1C — 2.3-fold lower, 1030 nM
- CCC(C)Nc1nc2ccccc2n2c(C)nnc12 (centres undefined) — 1.6-fold lower, 1500 nM
- CN1CCN(CC(=O)Nc2cc(N(C)C)nc3ccccc23)CC1 — 2.9-fold higher, 6650 nM
- COc1cccc(C2=CC(c3cccc(OC)c3OC)n3nnnc3N2)c1 (centres undefined) — 1.8-fold lower, 1300 nM
- COc1cccc(/C=N/NC(=O)c2ccc(N3CCCC3=O)cc2)c1 — within 1.5-fold, 3350 nM
- COc1ccc(S(=O)(=O)NCc2ccccn2)cc1NC(=O)c1ccccc1C — within 1.5-fold, 2690 nM
- Cc1ccc2nsnc2c1NC(=O)c1ccc(-c2cc(Cl)ccc2Cl)o1 — 2.8-fold lower, 846 nM
- COc1ccc(Sc2nnc(Cc3ccccc3)c3ccccc23)cc1 — within 1.5-fold, 2880 nM
- Cc1ccc(S/C=C\C(=O)c2ccccc2)cc1 — within 1.5-fold, 3170 nM
- COc1cc(NC(C(=O)Nc2cccc(C(C)=O)c2)c2ccccc2)cc(OC)c1OC (centres undefined) — 2.6-fold lower, 890 nM
- COc1ccc(NC(=O)c2oc3ccccc3c2NC(=O)c2ccco2)cc1 — 5-fold higher, 11700 nM
- Cc1ccc(Nc2nnc(SCC(=O)Nc3ncc(S(=O)(=O)c4ccc([N+](=O)[O-])cc4)s3)s2)cc1 — 3.9-fold higher, 9030 nM
- CN(C)CCNc1ccc2nnn3c4ccc(O)cc4c(=O)c1c23 — 45-fold lower, 52 nM
- COc1cc(C)c2sc3ccccc3c(=O)c2c1NCCN(C)C — 5-fold lower, 468 nM
- C=CCNc1nc2cc(-c3ccccc3C)sc2c(=O)n1C — within 1.5-fold, 2810 nM
- COc1ccc(NC(=O)c2ccc([N+](=O)[O-])o2)cc1 — 2.3-fold lower, 1020 nM
- CC(NC(=O)c1ccc2ccccc2n1)c1ccc(S(N)(=O)=O)cc1 (centres undefined) — 1.7-fold higher, 4020 nM
- Cc1ccc(/C=N/NC(=O)c2cc(-c3cccnc3)nc3ccccc23)cc1 — 1.9-fold lower, 1250 nM
- c1cc2c3c(cccc3c1)C(N1CCCCC1)=N2 — 5.9-fold higher, 13700 nM
- COc1cc(/C=N/Nc2nc3c(c(=O)n(C)c(=O)n3C)n2Cc2ccccc2)ccc1OC(=O)c1ccco1 — 4.5-fold higher, 10500 nM
- CN=C(SCC(=O)c1cccc(Cl)c1)c1c(O)n(C)c(=O)n(C)c1=O — within 1.5-fold, 2590 nM
- COc1ccc2c(c1)OC[C@H]1[C@H]2N2C(=O)c3ccc(C)cc3NC(=O)[C@@]2(C)[C@H]1c1ccccc1 — 2.5-fold lower, 926 nM
- CCOC(=O)N1CCN(c2c(NCc3ccc(F)cc3)c(=O)c2=O)CC1 — 3.6-fold higher, 8400 nM
- CN(C)CCNc1cccc2sc3ccc(O)cc3c(=O)c12 — 4.7-fold lower, 500 nM
- O=C(O)CCC/C=C\C[C@@H]1[C@@H](/C=C/[C@@H](O)COc2cccc(Cl)c2)[C@H](O)C[C@@H]1O — lower, < 1.2 nM
- Cc1ccc(CSc2ccc3nnc(-c4cccnc4)n3n2)cc1 — 2-fold lower, 1170 nM
- CS(=O)(=O)Nc1cccc(NC(=O)C2Cc3c(-c4ccccc4)ccnc3O2)c1 (centres undefined) — within 1.5-fold, 2360 nM
- O=c1[nH]c(=O)n(C2CC(O)C(CO)O2)cc1I (centres undefined) — 2.6-fold lower, 880 nM
- COc1ccc(CCCNC(=O)C2Cc3c(-c4cccc(C(C)=O)c4)ccnc3O2)cc1 (centres undefined) — 5.4-fold higher, 12600 nM
- COc1ccccc1/C=N/NC(=O)c1cc2c(OC)c(OC)ccc2[nH]1 — 4.7-fold lower, 495 nM
- Cc1nc2c3cc(F)ccc3n(Cc3ccc(F)cc3)c2s1 — 4.9-fold higher, 11500 nM
- COc1ccc2c(c1)OC[C@H]1[C@H]2N2C(=O)c3cc(Cl)ccc3NC(=O)[C@@]2(C)[C@H]1c1ccccc1 — 1.9-fold lower, 1250 nM
- COC(=O)[C@@H]1C[C@H]1[C@@H](NP(=O)(c1ccccc1)c1ccccc1)c1ccccc1 — 1.6-fold higher, 3650 nM
- O=c1c2c3c(sc2ncn1/N=C/c1ccc([N+](=O)[O-])o1)CCCC3 — 5.2-fold lower, 447 nM
- Cc1nc(Nc2nc(-c3ccccc3)cc(=O)[nH]2)nc2ccccc12 — within 1.5-fold, 1690 nM
- CCCCCCC(=O)N(O)C1CC(=O)N(c2ccc(Br)cc2)C1=O (centres undefined) — 3.4-fold lower, 689 nM
- CC(C)OCC(O)CN1CCN(CCN2C(=O)c3cccc4cccc(c34)C2=O)CC1 (centres undefined) — 3.1-fold higher, 7110 nM
- c1ccc(CNc2nc(NCCc3ccncc3)c3sccc3n2)cc1 — 2.1-fold lower, 1120 nM
- Cc1ccc(Oc2ccc(S(=O)(=O)N3CCOCC3)cc2C(N)=O)c(-n2nc3ccccc3n2)c1 — within 1.5-fold, 2770 nM
- COc1ccc(C=CC(=O)c2ccc3cc(OC)c(OC)cc3c2)cc1OC — within 1.5-fold, 2860 nM
- COc1cccc(C(NC(C)=O)c2nc(-c3ccccc3OC)cs2)c1 (centres undefined) — 5.2-fold lower, 452 nM
